In patent US20180030080A1, “Phosphoramidate nucleoside prodrug for treating viral diseases and cancer, processes for their preparation and their use” (ASAVI, LLC, priority 2016, published 2018):
Where two headings read alike, the source gives them in different places.

Columns and labels:
[1] = system: HBV wild-type; settings: HBV wild-type; cited from earlier work
[2] = system: HCV replicon gT1a; experiment: HCV replicon assay, genotype gT1a; assay type: cell-based; settings: Hepatitis C virus, mean
Protocol: (§1) Anti-HCV activity (EC50) and cytotoxicity (CC50) of prodrugs of general formula 1. The HCV replicon assay was used to determine the antiviral activity of chemotherapeutic agents of general formula 1 (test compounds). Sovaldi (PSI-7977) was used as the reference drug. The test cell line used in the HCV Replicon Assay was the human hepatoma cell line Huh7 incorporating the HCV replicons synthesized by an outside vendor. 96-well plates were seeded with cells at a density of 7.5×10^3 cells per well in 50 μl of assay media. The compound stock solution was made up freshly in an assay medium (DMEM 1×, Cellgro; cat. #10-013-CV) as a 2× stock. A total of 11 serial 3-fold dilutions of test compounds were prepared from the 2× stock in the assay media ranging from 20 nM-0.2 pM final concentrations. At least 4 hours after seeding the cells, compound treatment was initiated by adding 50 μl of compound dilution to the plates. […] The final DMSO concentration was 0.5%. Cells and inhibitors were incubated for 3 days at 37° C./5% CO2. The media was removed from the plates by gentle tapping. The cells were fixed with 100 μl 1:1 acetone:methanol for 1 minute, washed three times with PBS buffer, and then blocked with 150 μl/well 10% Fetal Bovine Serum (FBS) in PBS for 1 hour at room temperature. The cells were then washed three times with PBS buffer and incubated with 100 μl/well anti-hepatitis C core mAb (Affinity BioReagents; cat. # MA1-080, 1 mg/ml stock diluted 1:4,000 in 10% FBS-PBS) for 2 hours at 37° C. Then, the cells were washed three times with PBS and incubated with 100 μl/well HRP-Goat Anti-Mouse antibody (diluted 1:3.500 in 10% FBS-PBS) for 1 hour at 37° C. […] The reaction was stopped with 2N H2SO4 (100 μl/well), and the absorbance was measured at A490 X on a Victor^3 V 1420 multilabel counter (Perkin Elmer). The EC50 values were calculated for test compounds from the resulting best-fit equations determined by Xlfit software (Table 1).

[3] = system: HCV replicon gT4a; experiment: HCV replicon assay, genotype gT4a; assay type: cell-based; settings: Hepatitis C virus, mean
Protocol: as §1

[4] = system: HCV replicon gT5a; experiment: HCV replicon assay, genotype gT5a; assay type: cell-based; settings: Hepatitis C virus, mean
Protocol: as §1

[5] = system: HCV replicon gT2a; experiment: HCV replicon assay, genotype gT2a; assay type: cell-based; settings: Hepatitis C virus, mean
Protocol: Anti-HCV activity (EC50) and cytotoxicity (CC50) of prodrugs of general formula 1. The HCV replicon assay was used to determine the antiviral activity of chemotherapeutic agents of general formula 1 (test compounds). Sovaldi (PSI-7977) was used as the reference drug. The test cell line used in the HCV Replicon Assay was the human hepatoma cell line Huh7 incorporating the HCV replicons synthesized by an outside vendor. 96-well plates were seeded with cells at a density of 7.5×10^3 cells per well in 50 μl of assay media. The compound stock solution was made up freshly in an assay medium (DMEM 1×, Cellgro; cat. #10-013-CV) as a 2× stock. A total of 11 serial 3-fold dilutions of test compounds were prepared from the 2× stock in the assay media ranging from 20 nM-0.2 pM final concentrations. At least 4 hours after seeding the cells, compound treatment was initiated by adding 50 μl of compound dilution to the plates. The final concentrations of compound therefore ranged from 10 nM to 0.1 pM when diluted 1:1 in culture media. The final DMSO concentration was 0.5%. Cells and inhibitors were incubated for 3 days at 37° C./5% CO2. The media was removed from the plates by gentle tapping. The cells were fixed with 100 μl 1:1 acetone:methanol for 1 minute, washed three times with PBS buffer, and then blocked with 150 μl/well 10% Fetal Bovine Serum (FBS) in PBS for 1 hour at room temperature. The cells were then washed three times with PBS buffer and incubated with 100 μl/well anti-hepatitis C core mAb (Affinity BioReagents; cat. # MA1-080, 1 mg/ml stock diluted 1:4,000 in 10% FBS-PBS) for 2 hours at 37° C. Then, the cells were washed three times with PBS and incubated with 100 μl/well HRP-Goat Anti-Mouse antibody (diluted 1:3.500 in 10% FBS-PBS) for 1 hour at 37° C. […] The reaction was stopped with 2N H2SO4 (100 μl/well), and the absorbance was measured at A490 X on a Victor^3 V 1420 multilabel counter (Perkin Elmer). The EC50 values were calculated for test compounds from the resulting best-fit equations determined by Xlfit software (Table 1).

[6] = system: HCV replicon gT1b; experiment: HCV replicon assay, genotype gT1b; assay type: cell-based; settings: Hepatitis C virus
Protocol: Anti-HCV activity (EC50) and cytotoxicity (CC50) of prodrugs of general formula 1. The HCV replicon assay was used to determine the antiviral activity of chemotherapeutic agents of general formula 1 (test compounds). Sovaldi (PSI-7977) was used as the reference drug. The test cell line used in the HCV Replicon Assay was the human hepatoma cell line Huh7 incorporating the HCV replicons synthesized by an outside vendor. 96-well plates were seeded with cells at a density of 7.5×10^3 cells per well in 50 μl of assay media. The compound stock solution was made up freshly in an assay medium (DMEM 1×, Cellgro; cat. #10-013-CV) as a 2× stock. A total of 11 serial 3-fold dilutions of test compounds were prepared from the 2× stock in the assay media ranging from 20 nM-0.2 pM final concentrations. At least 4 hours after seeding the cells, compound treatment was initiated by adding 50 μl of compound dilution to the plates. […] The final DMSO concentration was 0.5%. Cells and inhibitors were incubated for 3 days at 37° C./5% CO2. The media was removed from the plates by gentle tapping. The cells were fixed with 100 μl 1:1 acetone:methanol for 1 minute, washed three times with PBS buffer, and then blocked with 150 μl/well 10% Fetal Bovine Serum (FBS) in PBS for 1 hour at room temperature. The cells were then washed three times with PBS buffer and incubated with 100 μl/well anti-hepatitis C core mAb (Affinity BioReagents; cat. # MA1-080, 1 mg/ml stock diluted 1:4,000 in 10% FBS-PBS) for 2 hours at 37° C. Then, the cells were washed three times with PBS and incubated with 100 μl/well HRP-Goat Anti-Mouse antibody (diluted 1:3.500 in 10% FBS-PBS) for 1 hour at 37° C. The cells were then washed three times with PBS and developed with an OPD solution, 100 μl/well (1 OPD tablet+12 ml citrate/phosphate buffer+5 μl 30% H2O2 per plate), for 30 minutes in the dark at room temperature. The reaction was stopped with 2N H2SO4 (100 μl/well), and the absorbance was measured at A490 X on a Victor^3 V 1420 multilabel counter (Perkin Elmer). The EC50 values were calculated for test compounds from the resulting best-fit equations determined by Xlfit software (Table 1).

[7] = system: HCV replicon gT3a; experiment: HCV replicon assay, genotype gT3a; assay type: cell-based; settings: Hepatitis C virus, mean
Protocol: as §1

[8] = system: HepG2 AD38 cell line; experiment: Cytotoxicity (viability, CC50) reported with the anti-HBV test; assay type: cell-based; settings: for viability, %: concentration not given
[9] = system: HBV; experiment: Anti-HBV activity in the AD-38 cell line using real-time quantitative PCR; assay type: cell-based; settings: against HBV; for EC50: AD-38 cells, 4 days, read-out: EC50; for inhibition, %: concentration not given
Protocol: Anti-HBV activity of prodrugs of general formula 1 determination in the AD-38 cell line using a real-time quanitative PCR. a) Cell cultures. HepG2 AD38 cell line, harboring an integrated over-the-length HBV genomic DNA (Lander S, et. al, Antimicrobal Agents and Chemotherapy, 1997, pg. 1715-1720) were provided by Dr. C. Seeger, Fox Chase Cancer Center, Philadelphia, Pa.). Cells were grown in complete media (DMEM/F12 with 2 mM L-Glutamine (Thermo Scientific, Cat #11320033), 10% Fetal Bovine Serum (ThermoFisher Scientific, Cat#), 1% Antibiotic-antimitotic solution (ThermoFisher Scientific, Cat#15240096), and 0.3 μg/ml tetracyclin (Sigma, Cat # T7660-5G). Cells were plated onto Corning Biocoat 96-well plates (Corning, Cat #356407) in 225 ul of complete media (without teracyclin), 20000 cells/well. The prodrugs of general formula 1 were dissolved first in DMSO (Sigma cat. D2650), then in DMEM/F12 and 9 serial 3× dilutions were prepared and added to cells in 22.5 μl. The final prodrugs concentrations ranged from 10 μM to 1 nM. Cells grown in the presence of tetracyclin were used as a positive control, as HBV replication in this cell line is turned off by thetracyclin. Cell plates were incubated for 4 days at 37 C, 5% CO2. b) HBV DNA isolation. After 4 days, viral DNA was isolated from culture supernatants using PureLink® Pro 96 Genomic DNA Purification Kit (ThermoFisher Scientific, Cat # K183104A), according to manufacturer's recommendations. Eluted DNA samples were stored at −20 C. c) Quantitative real-time PCR (qPCR). PCR was performed on the CFX96™ Real-Time System (Bio-Rad, Hercules, Calif.) using AmpliTaq Gold® DNA Polymerase (Applied Biosystems®).
Ct values (cycle threshold) were obtained for each prodrug sample and normalized to untreated cells, according to formula E=(1/(1+100%))̂(Ct[studied prodrug sample]−Ct[K-]), where E is a normalized expression of studied gene, Ct[K-] and Ct[studied prodrug sample] are Ct values of untreated cells and studied prodrug sample. Inhibition curves were obtained and EC50 values were calculated using the Graph Prizm software (Table 3).

[10] = system: HCV replicon; settings: cited from earlier work
[11] = GT1B, read-out: IC50 HCV gT1b 10% FBS (mean)
[12] = gT1b, 40% NHS, mean, read-out: IC50 HCV gT1b 40% NHS (mean)

| Compound | CC50 [8] [nM] | viability, % [8] [%] | EC50 [9] [nM] | inhibition, % [9] [%] | further results |
| --- | --- | --- | --- | --- | --- |
| 2′-fluoro-6′-methylene-carbocyclic adenosine [FMCA] | – | – | – | – | EC50 [1]: 550 nM |
| CC(C)OC(=O)[C@H](C)OC(=O)[C@H](C)NP(=O)(OC[C@H]1O[C@@H](n2ccc(=O)[nH]c2=O)[C@](C)(F)[C@@H]1O)Oc1ccccc1 (stereo partly drawn) [1.2(2), (S)-1-isopropyloxycarbonyl-ethyl (S)-2-{[(2R,3R,4R,5R)-5-(2,4-dioxo-3,4-dihydro-2H-pyrimidin-1-yl)-4-fluoro-3-hydroxy-4-methyl-tetrahydro-furan-2-ylmethoxy]-phenoxy-phosphorylamino}-propanoate] | – | – | – | – | IC50 [2]: 57 nM; IC50 [3]: 80 nM; IC50 [4]: 185 nM; IC50 [5]: 24 nM; IC50 [6, 11]: 18 nM; IC50 [6, 12]: 34 nM; IC50 [7]: 69 nM |
| C=CCOC(=O)[C@H](C)NP(=O)(OC[C@H]1O[C@@H](n2ccc(=O)[nH]c2=O)[C@](C)(F)[C@@H]1O)Oc1ccccc1 (stereo partly drawn) [1.2(9), allyl (S)-2-{[(2R,3R,4R,5R)-5-(2,4-dioxo-3,4-dihydro-2H-pyrimidin-1-yl)-4-fluoro-3-hydroxy-4-methyl-tetrahydro-furan-2-ylmethoxy]-phenoxy-phosphorylamino}-propanoate] | – | – | – | – | IC50 [2]: 54 nM; IC50 [3]: 100 nM; IC50 [4]: 146 nM; IC50 [5]: 23 nM; IC50 [6, 11]: 29 nM; IC50 [6, 12]: 34 nM; IC50 [7]: 51 nM |
| C=C1[C@H](CO[P@@](=O)(N[C@@H](C)C(=O)O[C@@H](C)C(=O)OC(C)C)Oc2ccccc2)[C@@H](O)C[C@@H]1n1cnc2c(=O)[nH]c(N)nc21 [1.2(50), (S)-1-isopropoxycarbonyl-ethyl (S)-2-{(S)-[(1R,3S,5S)-3-(2-amino-6-oxo-1,6-dihydro-purin-9-yl)-5-hydroxy-2-methylene-cyclopentylmethoxy]-phenoxy-phosphorylamino}-propanoate] | > 30000 | 95 | 40 ± 30 | 100 | – |
| CC(C)OC(=O)[C@H](C)OC(=O)[C@H](C)N[P@](=O)(OC[C@@H]1O[C@H](n2ccc(N)nc2=O)CS1)Oc1ccccc1 [1.2(92), (S)-1-isopropoxycarbonyl-ethyl (S)-2-{(S)-[(2R,5S)-5-(4-amino-2-oxo-2H-pyrimidin-1-yl)-[1,3]oxathiolan-2-ylmethoxy]-phenoxy-phosphorylamino}-propanoate] | > 30000 | 103 | 800 ± 610 | 86 | – |
| CC(C)OC(=O)[C@H](C)OC(=O)[C@H](C)N[P@](=O)(OC[C@@H]1O[C@H](n2cc(F)c(N)nc2=O)CS1)Oc1ccccc1 [1.2(93), (S)-1-isopropoxycarbonyl-ethyl (S)-2-{(S)-[(2R,5S)-5-(4-amino-5-fluoro-2-oxo-2H-pyrimidin-1-yl)-[1,3]oxathiolan-2-ylmethoxy]-phenoxy-phosphorylamino}-propanoate] | > 30000 | 94 | 40 ± 10 | 93 | – |
| C=CCOC(=O)[C@H](C)N[P@](=O)(OC[C@@H]1O[C@H](n2ccc(=O)[nH]c2=O)CS1)Oc1ccccc1 [1.2(94), allyl (S)-2-{(S)-[(2R,5S)-5-(2,4-dioxo-3,4-dihydro-2H-pyrimidin-1-yl)-[1,3]oxathiolan-2-ylmethoxy]-phenoxy-phosphorylamino}-propanoate] | > 30000 | 101 | 300 ± 90 | 99 | – |
| COCCOC(=O)[C@H](C)N[P@](=O)(OC[C@@H]1O[C@H](n2ccc(=O)[nH]c2=O)CS1)Oc1ccccc1 [1.2(96), 2-methoxy-ethyl (S)-2-{(S)-[(2R,5S)-5-(2,4-dioxo-3,4-dihydro-2H-pyrimidin-1-yl)-[1,3]oxathiolan-2-ylmethoxy]-phenoxy-phosphorylamino}-propanoate] | > 30000 | 89 | 320 ± 80 | 96 | – |
| C=CCOC(=O)[C@H](C)N[P@](=O)(OC[C@@H]1O[C@H](n2cc(F)c(=O)[nH]c2=O)CS1)Oc1ccccc1 [1.2(97), allyl (S)-2-{(S)-[(2R,5S)-5-(5-fluoro-2,4-dioxo-3,4-dihydro-2H-pyrimidin-1-yl)-[1,3]oxathiolan-2-ylmethoxy]-phenoxy-phosphorylamino}-propanoate] | > 30000 | 91 | 370 ± 50 | 99 | – |
| CC(C)(CO)C(=O)SCCOP(=O)(COC[C@H]1OC(n2cnc3c(=O)[nH]c(N)nc32)[C@](C)(O)[C@@H]1O)NCc1ccccc1 (stereo partly drawn) [IDX-184] | – | – | – | – | EC50 [10]: 400 nM |
| COc1nc(N)nc2c1ncn2[C@@H]1O[C@H](COP(=O)(N[C@@H](C)C(=O)OC(C)C)Oc2ccccc2)[C@@H](O)[C@@]1(C)F (stereo partly drawn) [PSI-353661] | – | – | – | – | EC90 ([10]; replicon assay): 8 nM; increase in potency compared to the guanosine analogue ([10]; versus β-D-2′-deoxy-2′-R-fluoro-2′-β-C-methylguanosine): > 1000 fold |
